Measured values taken from US20140303164A1, “THERAPEUTIC COMPOUNDS” (Gilead Sciences, Inc., priority 2013, published 2014).

Experiments:
HIV-IIIb = experiment: Test A: Antiviral Assay in MT4 Cells; assay type: cell-based, HIV-1; conditions: Human immunodeficiency virus 1, IIIB, MT4, 120 h; for inhibition at 0.2 µM: read-out: % inhibition at 0.2 μM; for inhibition at 2 µM: read-out: % inhibition at 2 μM
Experimental: Test A: Antiviral Assay in MT4 Cells
MT-4 cells were next mixed with HIV-IIIb at an m.o.i of 0.003 for 1 hour, after which time 35 μL of virus/cell mixture (2000 cells) was immediately added to each well containing 40 μL of diluted compound. The plates were then incubated at 37° C. for 5 days. […] Cell lysis was carried out by incubating at room temperature for 10 min and then chemiluminescence was read.

[1] = Test B: Cytotoxicity Assay; assay type: cell-based; conditions: human, uninfected MT-4 cells, same protocol as Test A
In short: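 Uninfected MT-4 cells (2000 per well) incubated with diluted compound at 37° C. for 5 days, following the antiviral protocol without HIV-IIIb.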

With `Cn1nc(NS(C)(=O)=O)c2c(Cl)ccc(-c3ccc(-c4cnc(C(C)(C)C)s4)nc3[C@H](Cc3cc(F)cc(F)c3)NC(=O)Cn3nc(C(F)(F)F)c4c3C(F)(F)[C@@H]3C[C@H]43)c21` [Compound 178, N—((S)-1-(6-(2-(tert-butyl)thiazol-5-yl)-3-(4-chloro-1-methyl-3-(methylsulfonamido)-1H-indazol-7-yl)pyridin-2-yl)-2-(3,5-difluorophenyl)ethyl)-2-((3b-S,4aR)-5,5-difluoro-3-(trifluoromethyl)-3b,4,4a,5-tetrahydro-1H-cyclopropa[3,4]cyclopenta[1,2-c]pyrazol-1-yl)acetamide] the inhibition at 0.2 µM (HIV-IIIb) was 95%, the inhibition at 2 µM (HIV-IIIb) was 100% and the CC50 at 5 days [1] was 14 µM.

With `Cn1nc(NS(C)(=O)=O)c2c(Cl)ccc(-c3ccc(C#CC(C)(O)C(F)F)nc3[C@H](Cc3cc(F)cc(F)c3)NC(=O)Cn3nc(C(F)(F)F)c4c3C(F)(F)[C@@H]3C[C@H]43)c21` (stereo partly drawn) [Compound 157G, N-((1S)-1-(3-(4-chloro-1-methyl-3-(methylsulfonamido)-1H-indazol-7-yl)-6-(4,4-difluoro-3-hydroxy-3-methylbut-1-yn-1-yl)pyridin-2-yl)-2-(3,5-difluorophenyl)ethyl)-2-((3b-S,4aR)-5,5-difluoro-3-(trifluoromethyl)-3b,4,4a,5-tetrahydro-1H-cyclopropa[3,4]cyclopenta[1,2-c]pyrazol-1-yl)acetamide] the inhibition at 0.2 µM (HIV-IIIb) was 87%, the inhibition at 2 µM (HIV-IIIb) was 87% and the CC50 at 5 days [1] was 10.9 µM.

In the case of `CC(C)(O)C#Cc1ccc(-c2ccc(Cl)n3c(NS(C)(=O)=O)nnc23)c([C@H](Cc2cc(F)cc(F)c2)NC(=O)Cn2nc(C(F)F)c3c2C(F)(F)[C@@H]2C[C@H]32)n1` [Compound 110E, N—((S)-1-(3-(5-chloro-3-(methylsulfonamido)-[1,2,4]triazolo[4,3-a]pyridin-8-yl)-6-(3-hydroxy-3-methylbut-1-yn-1-yl)pyridin-2-yl)-2-(3,5-difluorophenyl)ethyl)-2-((3b-S,4aR)-3-(difluoromethyl)-5,5-difluoro-3b,4,4a,5-tetrahydro-1H-cyclopropa[3,4]cyclopenta[1,2-c]pyrazol-1-yl)acetamide], the inhibition at 0.2 µM (HIV-IIIb) was 15%, the inhibition at 2 µM (HIV-IIIb) was 98% and the CC50 at 5 days [1] was > 53.2 µM.

For `CC(C)(O)C#Cc1ccc(-c2cccc3[nH]ncc23)c([C@H](Cc2cc(F)cc(F)c2)NC(=O)Cn2nc(C(F)(F)F)c3c2C(F)(F)[C@@H]2C[C@H]32)n1` [Compound 72, 2-((3bS,4aR)-5,5-difluoro-3-(trifluoromethyl)-3b,4,4a,5-tetrahydro-1H-cyclopropa[3,4]cyclopenta[1,2-c]pyrazol-1-yl)-N—((S)-2-(3,5-difluorophenyl)-1-(6-(3-hydroxy-3-methylbut-1-yn-1-yl)-3-(1H-indazol-4-yl)pyridin-2-yl)ethyl)acetamide], the inhibition at 0.2 µM (HIV-IIIb) was 85%, the inhibition at 2 µM (HIV-IIIb) was 87% and the CC50 at 5 days [1] was 5.87 µM.

Compound `Cn1nc(NS(C)(=O)=O)c2cccc(-c3cnc(C#CC(C)(C)O)nc3[C@H](Cc3cc(F)cc(F)c3)NC(=O)Cn3nc(C(F)F)c4c3C(F)(F)CCC4(F)F)c21` [Compound 40, (S)-2-(3-(difluoromethyl)-4,4,7,7-tetrafluoro-4,5,6,7-tetrahydro-1H-indazol-1-yl)-N-(2-(3,5-difluorophenyl)-1-(2-(3-hydroxy-3-methylbut-1-yn-1-yl)-5-(1-methyl-3-(methylsulfonamido)-1H-indazol-7-yl)pyrimidin-4-yl)ethyl)acetamide] has an inhibition at 0.2 µM (HIV-IIIb) of 87%, an inhibition at 2 µM (HIV-IIIb) of 87% and a CC50 at 5 days [1] of 8.72 µM.

In the case of `CC(C)(O)C#Cc1ccc(-c2ccc(Cl)n3c(N)nnc23)c([C@H](Cc2cc(F)cc(F)c2)NC(=O)Cn2nc(C(F)(F)F)c3c2C(F)(F)[C@@H]2C[C@H]32)n1` [Compound 111, N—((S)-1-(3-(3-amino-5-chloro-[1,2,4]triazolo[4,3-a]pyridin-8-yl)-6-(3-hydroxy-3-methylbut-1-yn-1-yl)pyridin-2-yl)-2-(3,5-difluorophenyl)ethyl)-2-((3b-S,4aR)-5,5-difluoro-3-(trifluoromethyl)-3b,4,4a,5-tetrahydro-1H-cyclopropa[3,4]cyclopenta[1,2-c]pyrazol-1-yl)acetamide], the inhibition at 0.2 µM (HIV-IIIb) was 89%, the inhibition at 2 µM (HIV-IIIb) was 90% and the CC50 at 5 days [1] was 9.59 µM.

Compound `Cn1nc(NS(C)(=O)=O)c2c(Cl)ccc(-c3ccc(C#CC(C)(O)CF)nc3[C@H](Cc3cc(F)cc(F)c3)NC(=O)Cn3nc(C(F)(F)F)c4c3C(F)(F)[C@@H]3C[C@H]43)c21` (stereo partly drawn) [Compound 152, N-((1S)-1-(3-(4-chloro-1-methyl-3-(methylsulfonamido)-1H-indazol-7-yl)-6-(4-fluoro-3-hydroxy-3-methylbut-1-yn-1-yl)pyridin-2-yl)-2-(3,5-difluorophenyl)ethyl)-2-((3b-S,4aR)-5,5-difluoro-3-(trifluoromethyl)-3b,4,4a,5-tetrahydro-1H-cyclopropa[3,4]cyclopenta[1,2-c]pyrazol-1-yl)acetamide] has an inhibition at 0.2 µM (HIV-IIIb) of 89%, an inhibition at 2 µM (HIV-IIIb) of 89% and a CC50 at 5 days [1] of 11.9 µM.

Work on `CC(C)(O)C#Cc1ccc(-c2cccc3c(N)nccc23)c([C@H](Cc2cc(F)cc(F)c2)NC(=O)Cn2nc(C(F)(F)F)c3c2C(F)(F)[C@@H]2C[C@H]32)n1` [Compound 73, N—((S)-1-(3-(1-aminoisoquinolin-5-yl)-6-(3-hydroxy-3-methylbut-1-yn-1-yl)pyridin-2-yl)-2-(3,5-difluorophenyl)ethyl)-2-((3b-S,4aR)-5,5-difluoro-3-(trifluoromethyl)-3b,4,4a,5-tetrahydro-1H-cyclopropa[3,4]cyclopenta[1,2-c]pyrazol-1-yl)acetamide] yielded an inhibition at 0.2 µM (HIV-IIIb) of 86%, an inhibition at 2 µM (HIV-IIIb) of 86% and a CC50 at 5 days [1] of 4.49 µM.

Compound `CNC(=O)c1nn(CC(=O)N[C@@H](Cc2cc(F)cc(F)c2)c2nc(C#CC(C)(C)O)ccc2-c2ccc(Cl)c3c(NS(C)(=O)=O)nn(C)c23)c2c1[C@H]1C[C@H]1C2(F)F` [Compound 165, (3bS,4aR)-1-(2-(((S)-1-(3-(4-chloro-1-methyl-3-(methylsulfonamido)-1H-indazol-7-yl)-6-(3-hydroxy-3-methylbut-1-yn-1-yl)pyridin-2-yl)-2-(3,5-difluorophenyl)ethyl)amino)-2-oxoethyl)-5,5-difluoro-N-methyl-3b,4,4a,5-tetrahydro-1H-cyclopropa[3,4]cyclopenta[1,2-c]pyrazole-3-carboxamide] has an inhibition at 0.2 µM (HIV-IIIb) of 72%, an inhibition at 2 µM (HIV-IIIb) of 72% and a CC50 at 5 days [1] of 5.46 µM.

For `CN(C)CC#Cc1ccc(-c2cccc3c(NS(C)(=O)=O)nn(C)c23)c([C@H](Cc2cc(F)cc(F)c2)NC(=O)Cn2nc(C(F)(F)F)c3c2C(F)(F)[C@@H]2C[C@H]32)n1` [Compound 61B, 2-((3bS,4aR)-5,5-difluoro-3-(trifluoromethyl)-3b,4,4a,5-tetrahydro-1H-cyclopropa[3,4]cyclopenta[1,2-c]pyrazol-1-yl)-N—((S)-2-(3,5-difluorophenyl)-1-(6-(3-(dimethylamino)prop-1-yn-1-yl)-3-(1-methyl-3-(methylsulfonamido)-1H-indazol-7-yl)pyridin-2-yl)ethyl)acetamide], the inhibition at 0.2 µM (HIV-IIIb) was 96%, the inhibition at 2 µM (HIV-IIIb) was 96% and the CC50 at 5 days [1] was 14.3 µM.
